Experimental data from patent US7084172B2, “Bioprecursors for percutaneous application” (Pierre Fabre Dermo-Cosmetique, priority 2001, dated 2006).

System: HaCaT keratinocyte line
Assay: Enzymatic hydrolysis by esterase activity in HaCaT keratinocytes
Format: in vitro ADME, human
Experimental: 150 μl of a 1 mM solution in dimethyl sulphoxide (DMSO) are placed in a dish containing an HaCaT keratinocyte line (75 cm^2) in 15 ml of serum alone. The cells are placed in the incubator at 37° C. for 24 hours. The medium is extracted with 15 ml of ethyl acetate. The organic phase is then isolated and evaporated off.
The cells are extracted by sonication into 2×15 ml of an ice-cold mixture consisting of chloroform and methanol (1:2.5). After centrifugation, the organic phase collected is evaporated to dryness. For each test, a control is performed on a dish containing cells and a substrate-free medium to take account of a possible chemical degradation of the substrate.
The presence of esterase activity in the human keratinocytes is checked by means of a substrate, 4-methylumbelliferyl palmitate. The precursor according to the invention, used as pseudosubstrate, is the tocopheryl retinyl succinate prepared according to example 1.

| SMILES | Degree of hydrolysis in 24 hours of incubation (150 μl of 1 mM DMSO solution in 15 ml serum, HaCaT keratinocytes, 37° C., 24 hours) | Degree of hydrolysis in 24 hours of incubation (human, 24 h, 10 µM) |
| --- | --- | --- |
| CCCCCCCCCCCCCCCC(=O)Oc1ccc2c(C)cc(=O)oc2c1 [4-Methylumbelliferyl palmitate, 4-methylumbelliferyl palmitate] | 2.7% ± 2% | – |
| CC1=C(/C=C/C(C)=C/C=C/C(C)=C/COC(=O)CCC(=O)Oc2c(C)c(C)c3c(c2C)CCC(C)(CCCC(C)CCCC(C)CC(C)C)O3)C(C)(C)CCC1 (centres unmarked) [Tocopheryl retinyl succinate, O-(4-Oxo-4-{[2,5,7,8-tetramethyl-2-(4,8,12-trimethyltridecyl)-3,4-dihydro-2H-chromen-6-yl]oxy}butanoyl)retinol] | – | 5% ± 3% |
